Reference: US8497240B2 (priority 2006, dated 2013)
Values joined by “and” are separate entries in the source; they are usually repeats but may differ in a detail not shown here. Identical values can stand only once. Like-named read-outs stand apart in the source and are kept apart here.

Type: in vivo, NIH/Swiss mice

Compound	OGTT/GL (%) (30 nmol/kg)	OGTT/GL (%) (350 nmol/kg)
CC[C@H](C)[C@H](NC(=O)[C@H](CO)NC(=O)[C@H](Cc1ccc(O)cc1)NC(=O)[C@H](CC(=O)O)NC(=O)[C@H](CO)NC(=O)[C@@H](NC(=O)[C@H](Cc1ccccc1)NC(=O)[C@@H](NC(=O)CNC(=O)[C@H](CCC(=O)O)NC(=O)CCNC(=O)[C@@H](N)Cc1ccc(O)cc1)[C@@H](C)O)[C@@H](C)CC)C(=O)N[C@@H](C)C(=O)N[C@@H](CCSC)C(=O)N[C@@H](CC(=O)O)C(=O)N[C@@H](CCCCN)C(=O)N[C@H](C(=O)N[C@@H](Cc1c[nH]cn1)C(=O)N[C@@H](CCC(N)=O)C(=O)N[C@@H](CCC(N)=O)C(=O)N[C@@H](CC(=O)O)C(=O)N[C@@H](Cc1ccccc1)C(=O)N[C@H](C(=O)N[C@@H](CC(N)=O)C(=O)N[C@@H](Cc1c[nH]c2ccccc12)C(=O)N[C@@H](CC(C)C)C(=O)N[C@@H](CC(C)C)C(=O)N[C@@H](C)C(=O)N[C@@H](CCC(N)=O)C(=O)N[C@@H](CCCCN)C(=O)N1CCC[C@H]1C(=O)N[C@@H](CO)C(=O)N[C@@H](CO)C(=O)NCC(=O)N[C@@H](C)C(=O)N1CCC[C@H]1C(=O)N1CCC[C@H]1C(=O)N1CCC[C@H]1C(=O)N[C@@H](CO)C(N)=O)C(C)C)[C@@H](C)CC [0601GIP4458]	−14, 30%	
CC[C@H](C)[C@H](NC(=O)[C@H](CO)NC(=O)[C@H](Cc1ccc(O)cc1)NC(=O)[C@H](CC(=O)O)NC(=O)[C@H](CO)NC(=O)[C@@H](NC(=O)[C@H](Cc1ccccc1)NC(=O)[C@@H](NC(=O)CNC(=O)[C@H](CCC(=O)O)NC(=O)[C@@H](CCC(=O)O)NC(=O)[C@@H](N)Cc1ccc(O)cc1)[C@@H](C)O)[C@@H](C)CC)C(=O)N[C@@H](C)C(=O)N[C@@H](CCSC)C(=O)N[C@@H](CC(=O)O)C(=O)N[C@@H](CCCCN)C(=O)N[C@H](C(=O)N[C@@H](Cc1c[nH]cn1)C(=O)N[C@@H](CCC(N)=O)C(=O)N[C@@H](CCC(N)=O)C(=O)N[C@@H](CC(=O)O)C(=O)N[C@@H](Cc1ccccc1)C(=O)N[C@H](C(=O)N[C@@H](CC(N)=O)C(=O)N[C@@H](Cc1c[nH]c2ccccc12)C(=O)N[C@@H](CC(C)C)C(=O)N[C@@H](CC(C)C)C(=O)N[C@@H](C)C(=O)N[C@@H](CCC(N)=O)C(=O)N[C@@H](CCCCN)C(=O)N1CCC[C@H]1C(=O)N[C@@H](CO)C(=O)N[C@@H](CO)C(=O)NCC(=O)N[C@@H](C)C(=O)N1CCC[C@H]1C(=O)N1CCC[C@H]1C(=O)N1CCC[C@H]1C(=O)N[C@@H](CO)C(N)=O)C(C)C)[C@@H](C)CC [0601GIP4703]	−18, 30%	
CC[C@H](C)[C@H](NC(=O)[C@H](CO)NC(=O)[C@H](Cc1ccc(O)cc1)NC(=O)[C@H](CC(=O)O)NC(=O)[C@H](CO)NC(=O)[C@@H](NC(=O)[C@H](Cc1ccccc1)NC(=O)[C@@H](NC(=O)CNC(=O)[C@H](CCC(=O)O)NC(=O)[C@H](C)NC(=O)[C@H](Cc1ccc(O)cc1)NC(=O)[C@@H](N)CC(C)C)[C@@H](C)O)[C@@H](C)CC)C(=O)N[C@@H](C)C(=O)N[C@@H](CCSC)C(=O)N[C@@H](CC(=O)O)C(=O)N[C@@H](CCCCN)C(=O)N[C@H](C(=O)N[C@@H](Cc1c[nH]cn1)C(=O)N[C@@H](CCC(N)=O)C(=O)N[C@@H](CCC(N)=O)C(=O)N[C@@H](CC(=O)O)C(=O)N[C@@H](Cc1ccccc1)C(=O)N[C@H](C(=O)N[C@@H](CC(N)=O)C(=O)N[C@@H](Cc1c[nH]c2ccccc12)C(=O)N[C@@H](CC(C)C)C(=O)N[C@@H](CC(C)C)C(=O)N[C@@H](C)C(=O)N[C@@H](CCC(N)=O)C(=O)N[C@@H](CCCCN)C(=O)N1CCC[C@H]1C(=O)N[C@@H](CCCCN)C(=O)N[C@@H](CCCCN)C(=O)N[C@H](C(=O)N[C@@H](CCCNC(=N)N)C(=O)N[C@@H](Cc1ccc(O)cc1)C(=O)N[C@@H](CO)C(N)=O)[C@@H](C)CC)C(C)C)[C@@H](C)CC [0601GIP4799]	−10, % and −10, 30%	
CC[C@H](C)[C@H](NC(=O)[C@H](CO)NC(=O)[C@H](Cc1ccc(O)cc1)NC(=O)[C@H](CC(=O)O)NC(=O)[C@H](CO)NC(=O)[C@@H](NC(=O)[C@H](Cc1ccccc1)NC(=O)[C@@H](NC(=O)CNC(=O)[C@H](CCC(=O)O)NC(=O)[C@@H](C)NC(=O)[C@H](Cc1ccc(O)cc1)NC(=O)OCC(C)C)[C@@H](C)O)[C@@H](C)CC)C(=O)N[C@@H](C)C(=O)N[C@@H](CCSC)C(=O)N[C@@H](CC(=O)O)C(=O)N[C@@H](CCCCN)C(=O)N[C@H](C(=O)N[C@@H](Cc1c[nH]cn1)C(=O)N[C@@H](CCC(N)=O)C(=O)N[C@@H](CCC(N)=O)C(=O)N[C@@H](CC(=O)O)C(=O)N[C@@H](Cc1ccccc1)C(=O)N[C@H](C(=O)N[C@@H](CC(N)=O)C(=O)N[C@@H](Cc1c[nH]c2ccccc12)C(=O)N[C@@H](CC(C)C)C(=O)N[C@@H](CC(C)C)C(=O)N[C@@H](C)C(=O)N[C@@H](CCC(N)=O)C(=O)N[C@@H](CCCCN)C(=O)N1CCC[C@H]1C(=O)N[C@@H](CO)C(=O)N[C@@H](CO)C(=O)NCC(=O)N[C@@H](C)C(=O)N1CCC[C@H]1C(=O)N1CCC[C@H]1C(=O)N1CCC[C@H]1C(=O)N[C@@H](CO)C(N)=O)C(C)C)[C@@H](C)CC [Compound 0601GIP4180]	−11, 30%	
CC[C@H](C)[C@H](NC(=O)[C@H](CCCCN)NC(=O)[C@H](CC(=O)O)NC(=O)[C@H](CCSC)NC(=O)[C@@H](NC(=O)[C@@H](NC(=O)[C@H](CO)NC(=O)[C@H](Cc1ccc(O)cc1)NC(=O)[C@H](CC(=O)O)NC(=O)[C@H](CO)NC(=O)[C@@H](NC(=O)[C@H](Cc1ccccc1)NC(=O)[C@@H](NC(=O)CNC(=O)[C@H](CCC(=O)O)NC(=O)[C@@H](C)NC(=O)[C@@H](N)Cc1ccc(O)cc1)[C@@H](C)O)[C@@H](C)CC)[C@@H](C)CC)[C@@H](C)O)C(=O)N[C@@H](Cc1c[nH]cn1)C(=O)N[C@@H](CCC(N)=O)C(=O)N[C@@H](CCC(N)=O)C(=O)N[C@@H](CC(=O)O)C(=O)N[C@@H](Cc1ccccc1)C(=O)N[C@H](C(=O)N[C@@H](CC(N)=O)C(=O)N[C@@H](Cc1c[nH]c2ccccc12)C(=O)N[C@@H](CC(C)C)C(=O)N[C@@H](CC(C)C)C(=O)N[C@@H](C)C(=O)N[C@@H](CCC(N)=O)C(=O)N[C@@H](CCCCN)C(=O)N1CCC[C@H]1C(=O)N[C@@H](CO)C(=O)N[C@@H](CO)C(=O)NCC(=O)N[C@@H](C)C(=O)N1CCC[C@H]1C(=O)N1CCC[C@H]1C(=O)N1CCC[C@H]1C(=O)N[C@@H](CO)C(N)=O)C(C)C [Compound 0601GIP4213]		−17%
CC[C@H](C)[C@H](NC(=O)[C@H](CO)NC(=O)[C@H](Cc1ccc(O)cc1)NC(=O)[C@H](CC(=O)O)NC(=O)[C@H](CO)NC(=O)[C@@H](NC(=O)[C@H](Cc1ccccc1)NC(=O)[C@@H](NC(=O)CNC(=O)[C@H](CCC(=O)O)NC(=O)[C@@H](C)NC(=O)[C@@H](N)Cc1ccc(O)cc1)[C@@H](C)O)[C@@H](C)CC)C(=O)N[C@@H](C)C(=O)N[C@@H](CCSC)C(=O)N[C@@H](CC(=O)O)C(=O)N[C@@H](CCCCN)C(=O)N[C@H](C(=O)N[C@@H](Cc1c[nH]cn1)C(=O)N[C@@H](CCC(N)=O)C(=O)N[C@@H](CCC(N)=O)C(=O)N[C@@H](CC(=O)O)C(=O)N[C@@H](Cc1ccccc1)C(=O)N[C@H](C(=O)N[C@@H](CC(N)=O)C(=O)N[C@@H](Cc1c[nH]c2ccccc12)C(=O)N[C@@H](CC(C)C)C(=O)N[C@@H](CC(C)C)C(=O)N[C@@H](C)C(=O)N[C@@H](CCC(N)=O)C(=O)N[C@@H](CCCCN)C(=O)N1CCC[C@H]1C(=O)N[C@@H](CO)C(=O)N[C@@H](CCCCN)C(=O)N[C@@H](CCC(=O)O)C(=O)N[C@H](C(=O)N[C@H](C(=O)N[C@@H](CO)C(N)=O)[C@@H](C)CC)[C@@H](C)CC)C(C)C)[C@@H](C)CC [Compound 0601GIP4234]		−17%
CC[C@H](C)[C@H](NC(=O)[C@H](CO)NC(=O)[C@H](Cc1ccc(O)cc1)NC(=O)[C@H](CC(=O)O)NC(=O)[C@H](CO)NC(=O)[C@@H](NC(=O)[C@H](Cc1ccccc1)NC(=O)[C@@H](NC(=O)CNC(=O)[C@H](CCC(=O)O)NC(=O)[C@@H](C)NC(=O)[C@@H](N)Cc1ccc(O)cc1)[C@@H](C)O)[C@@H](C)CC)C(=O)N[C@@H](C)C(=O)N[C@@H](CCSC)C(=O)N[C@@H](CC(=O)O)C(=O)N[C@@H](CCCCN)C(=O)N[C@H](C(=O)N[C@@H](Cc1c[nH]cn1)C(=O)N[C@@H](CCC(N)=O)C(=O)N[C@@H](CCC(N)=O)C(=O)N[C@@H](CC(=O)O)C(=O)N[C@@H](Cc1ccccc1)C(=O)N[C@H](C(=O)N[C@@H](CC(N)=O)C(=O)N[C@@H](Cc1c[nH]c2ccccc12)C(=O)N[C@@H](CC(C)C)C(=O)N[C@@H](CC(C)C)C(=O)N[C@@H](C)C(=O)N[C@@H](CCC(N)=O)C(=O)N[C@@H](CCCCN)C(=O)N[C@H](C(=O)N[C@@H](CO)C(=O)N1CCC[C@H]1C(=O)N[C@@H](CCCNC(=N)N)C(=O)N1CCC[C@H]1C(=O)N1CCC[C@H]1C(=O)N[C@@H](CO)C(N)=O)[C@@H](C)O)C(C)C)[C@@H](C)CC [Compound 0601GIP4236]		−16%
CC[C@H](C)[C@H](NC(=O)[C@H](CO)NC(=O)[C@H](Cc1ccc(O)cc1)NC(=O)[C@H](CC(=O)O)NC(=O)[C@H](CO)NC(=O)[C@@H](NC(=O)[C@H](Cc1ccccc1)NC(=O)[C@@H](NC(=O)CNC(=O)[C@H](CC(=O)O)NC(=O)[C@H](C)NC(=O)[C@@H](N)Cc1ccc(O)cc1)[C@@H](C)O)[C@@H](C)CC)C(=O)N[C@@H](C)C(=O)N[C@@H](CCSC)C(=O)N[C@@H](CC(=O)O)C(=O)N[C@@H](CCCCN)C(=O)N[C@H](C(=O)N[C@@H](Cc1c[nH]cn1)C(=O)N[C@@H](CCC(N)=O)C(=O)N[C@@H](CCC(N)=O)C(=O)N[C@@H](CC(=O)O)C(=O)N[C@@H](Cc1ccccc1)C(=O)N[C@H](C(=O)N[C@@H](CC(N)=O)C(=O)N[C@@H](Cc1c[nH]c2ccccc12)C(=O)N[C@@H](CC(C)C)C(=O)N[C@@H](CC(C)C)C(=O)N[C@@H](C)C(=O)N[C@@H](CCC(N)=O)C(=O)N[C@@H](CCCCN)C(=O)N1CCC[C@H]1C(=O)N[C@@H](CCCCN)C(=O)N[C@@H](CCCCN)C(=O)N[C@H](C(=O)N[C@@H](CCCNC(=N)N)C(=O)N[C@@H](Cc1ccc(O)cc1)C(=O)N[C@@H](CO)C(N)=O)[C@@H](C)CC)C(C)C)[C@@H](C)CC [Compound 0601GIP4390]	1, 30%	
